Data: PubChem BioAssay (NCI)
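GI50: concentration for 50% inhibition of growth. TGI: total growth inhibition.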

Key:
Experiment in all cases: DTP human tumour cell line panel, 384-well format
786-0 renal = tested on: 786-0 renal
A498 renal = tested on: A498 renal
A549 NSCLC = tested on: A549 NSCLC
ACHN renal = tested on: ACHN renal
BT-549 breast = tested on: BT-549 breast
CAKI-1 renal = tested on: CAKI-1 renal
CCRF-CEM leukemia = tested on: CCRF-CEM leukemia
COLO 205 colon = tested on: COLO 205 colon
DU-145 prostate = tested on: DU-145 prostate
HCC-2998 colon = tested on: HCC-2998 colon
HCT-116 colon = tested on: HCT-116 colon
HCT-15 colon = tested on: HCT-15 colon
HL-60(TB) leukemia = tested on: HL-60(TB) leukemia
HOP-62 NSCLC = tested on: HOP-62 NSCLC
HT29 colon = tested on: HT29 colon
IGROV1 ovarian = tested on: IGROV1 ovarian
K-562 leukemia = tested on: K-562 leukemia
KM12 colon = tested on: KM12 colon
LOX IMVI melanoma = tested on: LOX IMVI melanoma
M14 melanoma = tested on: M14 melanoma
MALME-3M melanoma = tested on: MALME-3M melanoma
MCF7 breast = tested on: MCF7 breast
MDA-MB-231 breast = tested on: MDA-MB-231 breast
MDA-MB-435 melanoma = tested on: MDA-MB-435 melanoma
MDA-MB-468 breast = tested on: MDA-MB-468 breast
MOLT-4 leukemia = tested on: MOLT-4 leukemia
NCI-H226 lung = tested on: NCI-H226 lung
NCI-H23 lung = tested on: NCI-H23 lung
NCI-H322M lung = tested on: NCI-H322M lung
NCI-H460 NSCLC = tested on: NCI-H460 NSCLC
NCI-H522 lung = tested on: NCI-H522 lung
NCI/ADR-RES ovarian = tested on: NCI/ADR-RES ovarian
OVCAR-3 ovarian = tested on: OVCAR-3 ovarian
OVCAR-5 ovarian = tested on: OVCAR-5 ovarian
PC-3 prostate = tested on: PC-3 prostate
RPMI-8226 leukemia = tested on: RPMI-8226 leukemia
RXF 393 renal = tested on: RXF 393 renal
SF-268 CNS = tested on: SF-268 CNS
SF-295 CNS = tested on: SF-295 CNS
SF-539 CNS = tested on: SF-539 CNS
SK-MEL-2 melanoma = tested on: SK-MEL-2 melanoma
SK-MEL-28 melanoma = tested on: SK-MEL-28 melanoma
SK-MEL-5 melanoma = tested on: SK-MEL-5 melanoma
SK-OV-3 ovarian = tested on: SK-OV-3 ovarian
SN12C renal = tested on: SN12C renal
SNB-19 CNS = tested on: SNB-19 CNS
SR leukemia = tested on: SR leukemia
SW-620 colon = tested on: SW-620 colon
T-47D breast = tested on: T-47D breast
TK-10 renal = tested on: TK-10 renal
U251 glioblastoma = tested on: U251 glioblastoma
UACC-257 melanoma = tested on: UACC-257 melanoma
UACC-62 melanoma = tested on: UACC-62 melanoma
UO-31 renal = tested on: UO-31 renal

COc1cc2nccc(Oc3ccc(NC(=O)c4cn(C(C)C)c(=O)n(-c5ccc(F)cc5)c4=O)cc3F)c2cc1OC
GI50 ([…]-0 renal): 18.9 µM
TGI (786-0 renal): > 100 µM
GI50 (A498 renal): 3.41 µM
TGI (A498 renal): > 100 µM
GI50 (A549 NSCLC): 4.67 µM
TGI (A549 NSCLC): > 100 µM
GI50 (ACHN renal): 1.75 µM
TGI (ACHN renal): 5.13 µM
GI50 (BT-549 breast): 5.27 µM
TGI (BT-549 breast): > 100 µM
GI50 (CAKI-1 renal): 1.46 µM
TGI (CAKI-1 renal): 2.81 µM
GI50 (CCRF-CEM leukemia): > 100 µM
TGI (CCRF-CEM leukemia): > 100 µM
GI50 (COLO 205 colon): > 100 µM
TGI (COLO 205 colon): > 100 µM
GI50 (DU-145 prostate): > 100 µM
TGI (DU-145 prostate): > 100 µM
GI50 (HCC-2998 colon): > 100 µM
TGI (HCC-2998 colon): > 100 µM
GI50 (HCT-116 colon): 5.93 µM
TGI (HCT-116 colon): > 100 µM
GI50 (HCT-15 colon): > 100 µM
TGI (HCT-15 colon): > 100 µM
GI50 (HL-60(TB) leukemia): 2.6 µM
TGI (HL-60(TB) leukemia): > 100 µM
GI50 (HOP-62 NSCLC): 15 µM
TGI (HOP-62 NSCLC): > 100 µM
GI50 (HT29 colon): 7.99 µM
TGI (HT29 colon): > 100 µM
GI50 (IGROV1 ovarian): 5.5 µM
TGI (IGROV1 ovarian): > 100 µM
GI50 (K-562 leukemia): 0.0235 µM
TGI (K-562 leukemia): 0.137 µM
GI50 (KM12 colon): 0.0315 µM
TGI (KM12 colon): > 100 µM
GI50 (LOX IMVI melanoma): > 100 µM
TGI (LOX IMVI melanoma): > 100 µM
GI50 (M14 melanoma): 82.6 µM
TGI (M14 melanoma): > 100 µM
GI50 (MALME-3M melanoma): 2.85 µM
TGI (MALME-3M melanoma): > 100 µM
GI50 (MCF7 breast): 7.28 µM
TGI (MCF7 breast): > 100 µM
GI50 (MDA-MB-231 breast): 3.06 µM
TGI (MDA-MB-231 breast): > 100 µM
GI50 (MDA-MB-435 melanoma): > 100 µM
TGI (MDA-MB-435 melanoma): > 100 µM
GI50 (MDA-MB-468 breast): 6.91 µM
TGI (MDA-MB-468 breast): > 100 µM
GI50 (MOLT-4 leukemia): 0.407 µM
TGI (MOLT-4 leukemia): 4.2 µM
GI50 (NCI-H226 lung): 3.81 µM
TGI (NCI-H226 lung): 61.4 µM
GI50 (NCI-H23 lung): 0.0469 µM
TGI (NCI-H23 lung): > 100 µM
GI50 (NCI-H322M lung): > 100 µM
TGI (NCI-H322M lung): > 100 µM
GI50 (NCI-H460 NSCLC): 4.01 µM
TGI (NCI-H460 NSCLC): > 100 µM
GI50 (NCI-H522 lung): 1.65 µM
TGI (NCI-H522 lung): 5.66 µM
GI50 (NCI/ADR-RES ovarian): > 100 µM
TGI (NCI/ADR-RES ovarian): > 100 µM
GI50 (OVCAR-3 ovarian): > 100 µM
TGI (OVCAR-3 ovarian): > 100 µM
GI50 (OVCAR-5 ovarian): > 100 µM
TGI (OVCAR-5 ovarian): > 100 µM
GI50 (PC-3 prostate): 18.4 µM
TGI (PC-3 prostate): > 100 µM
GI50 (RPMI-8226 leukemia): 3.95 µM
TGI (RPMI-8226 leukemia): > 100 µM
GI50 (RXF 393 renal): 0.63 µM
TGI (RXF 393 renal): 4.89 µM
GI50 (SF-268 CNS): 3.37 µM
TGI (SF-268 CNS): > 100 µM
GI50 (SF-295 CNS): 0.271 µM
TGI (SF-295 CNS): > 100 µM
GI50 (SF-539 CNS): 1.3 µM
TGI (SF-539 CNS): 2.85 µM
GI50 (SK-MEL-2 melanoma): 2.29 µM
TGI (SK-MEL-2 melanoma): 9.87 µM
GI50 (SK-MEL-28 melanoma): 2.97 µM
TGI (SK-MEL-28 melanoma): > 100 µM
GI50 (SK-MEL-5 melanoma): 4.94 µM
TGI (SK-MEL-5 melanoma): > 100 µM
GI50 (SK-OV-3 ovarian): 5.58 µM
TGI (SK-OV-3 ovarian): > 100 µM
GI50 (SN12C renal): 0.642 µM
TGI (SN12C renal): > 100 µM
GI50 (SNB-19 CNS): > 100 µM
TGI (SNB-19 CNS): > 100 µM
GI50 (SR leukemia): 2.69 µM
TGI (SR leukemia): 20.6 µM
GI50 (SW-620 colon): 9.13 µM
TGI (SW-620 colon): > 100 µM
GI50 (T-47D breast): 1.5 µM
TGI (T-47D breast): 6.25 µM
GI50 (TK-10 renal): 96.6 µM
TGI (TK-10 renal): > 100 µM
GI50 (U251 glioblastoma): > 100 µM
TGI (U251 glioblastoma): > 100 µM
GI50 (UACC-257 melanoma): 2.33 µM
TGI (UACC-257 melanoma): 8.74 µM
GI50 (UACC-62 melanoma): 4.5 µM
TGI (UACC-62 melanoma): > 100 µM
GI50 (UO-31 renal): 0.246 µM
TGI (UO-31 renal): 0.65 µM
